Measured values as given in US20250354999A1, “BIOMARKERS OF LYSOSOMAL STORAGE DISEASE” (Genzyme Corporation, priority 2022, published 2025).
“Also recorded” adds a separate entry of the source.

Tests used:
Assay type in all cases: in vivo, human
CD63 [1] = assay: CD63 level in CSF of type 3 Gaucher disease patients on treatment (Olink Explore; LEAP trial); settings: GD3 patients, baseline, 26 weeks and 52 weeks on combination treatment of venglustat and imiglucerase
Protocol: For the measurement of protein levels in CSF, the following protocol was employed: Biomarker expression in CSF was measured using four Olink® Explore panels (Cardiometabolic, Inflammation, Neurology, and Oncology), as described, e.g., by Wik et al. (“Proximity Extension Assay in Combination with NextGeneration Sequencing for High-throughput Proteome-wide Analysis, 2021, Mol Cell Proteomics 20, 100168). Briefly, 10 μL of CSF samples and Olink controls were placed into a 384-well Sample Source Plate and then diluted 1:10, 1:100, 1:1000 and 1:100,000 in 384-well Sample Diluent Plates using Mosquito and Dragonfly liquid handlers (both from SPT Labtech). For immunoreaction, these diluted samples were mixed with the Olink® probes (DNA oligo-conjugated antibodies) in 384-well Incubation Plates using the Mosquito handler and incubated at 4° C. for 16-24 hours. The following day, reagent mixtures for the first PCR amplification step (PCR1 step) were added to the immunoreaction mixtures using the Dragonfly handler, and PCR1 reaction for the pre-amplification step was conducted using ProFlex PCR System (Applied Biosciences). […] The four libraries were analyzed by Next Generation Sequencing using NovaSeq 6000 (Illumina). […]

CD63 [2] = assay: CD63 level in plasma of Fabry patients on treatment (Olink profiling; Sanofi-Venglustat Phase II ACT/LTS trial)
Protocol: CD63 was measured by Olink® profiling, as described below, using the Olink® Target96 Neuro-Exploratory panel (Olink Proteomics AB, Uppsala, Sweden) according to the manufacturer's instructions.
Protein detection can be performed using Olink® (Olink Proteomics AB, Uppsala, Sweden) profiling in accordance with the manufacturer's recommended protocols (for exemplary methods, see, e.g., Assarsson et al., PLoS ONE (2014) 9(4):e95192; and Jabbari et al., Journal of Neurology, Neurosurgery & Psychiatry (2019) 90:768-773). The Proximity Extension Assay (PEA) technology used for the Olink® protocol has been well described (Assarsson et al., 2014, supra), and enables 92 analytes per panel to be analysed simultaneously, using 1 μL of each sample. In brief, pairs of oligonucleotide-labelled antibody probes bind to their targeted protein, and if the two probes are brought in close proximity the oligonucleotides will hybridize in a pair-wise manner. The addition of a DNA polymerase leads to a proximity-dependent DNA polymerization event, generating a unique PCR target sequence. The resulting DNA sequence can subsequently be detected and quantified using a microfluidic real-time PCR instrument (Biomark HD, Fluidigm). Data is then quality controlled and normalized using an internal extension control and an inter-plate control, to adjust for intra- and inter-run variation. The final assay read-out is presented in Normalized Protein expression (NPX) values, which is an arbitrary unit on a log 2-scale where a high value corresponds to a higher protein expression. All assay validation data (e.g., detection limits, intra- and inter-assay precision data, etc.), experimental protocols, and data processing are available on the manufacturer's website (www.olink.com).
The ACT/LTS samples were taken from the Sanofi-Venglustat Phase II trial. This trial consisted only of male patients. The Sanofi-Venglustat Phase II trial was a longitudinal study, and patient plasma was collected at 6 set intervals: Baseline (0 weeks), 12 weeks, 26 weeks, 52 weeks, 104.2 weeks, and 156.4 weeks. There are missing timepoints for some patients. During this trial, all patients were treated with venglustat (a substrate reduction therapy-SRT).
Cohort 1 is a collection of plasma samples provided by Dr. Gavin Oudit from the University of Alberta. Briefly, these plasma samples were from a mix of male and female patients with ages ranging from 25 to 68. They were non-longitudinal samples (e.g. 1 sample per patient), and the plasma samples were a mix of treated Fabry patients (enzyme replacement therapy-ERT), untreated Fabry patients, and healthy control subjects.
Cohort 2 is a collection of plasma samples provided by Dr. Michael Mauer from the University of Minnesota. […]

lyso-GL3 = lyso-GL3 level in plasma of Fabry patients on venglustat (ESI-LC-MS/MS)
Protocol: (§1) Glycosphingolipids (lyso-GL1, GL3, and lyso-GL3) were measured by ESI-LC-MS/MS according to the method described in Murugesan et al., Am J Hematol. (2016) 91(11):1082-1089. In brief, 20 μL aliquots of plasma were added to 1 mL of chloroform:methanol (2:3) in an Eppendorf tube, mixed and then centrifuged. Supernatant was removed and extracted with chloroform (220 μL) and water (520 μL) by mixing and centrifugation. The upper phase was re-extracted with chloroform and added to the lower phase. The combined sample was dried, resuspended in 100 μL methanol:water (9:1) and injected into an LC-MS/MS system for tandem mass spectroscopic analysis. Separation of glycosphingolipids and other matrix components was achieved using UPLC under gradient conditions with two mobile phases: 0.1% formic acid in water; and 0.1% formic acid in acetonitrile. Mass spectrometry (MS) was performed in select ion monitoring mode, typically using the parent (M+H^+) ion transition (e.g. m/z 462.5>282.4 for lyso-GL1). Assays were calibrated using known glycosphingolipid standards (dimethylpsychosine, 13C6-labelled lyso-GL3 (GelbChem), and C17-GL3 (Matreya LLC, cat no. 1523) as internal standards for lyso-GL1, lyso-GL3, and GL3 respectively).
(§2) The ACT/LTS samples were taken from the Sanofi-Venglustat Phase II trial. This trial consisted only of male patients. […]

GL3 = GL3 level in plasma of Fabry patients on venglustat (ESI-LC-MS/MS); settings: Fabry disease patients, venglustat clinical trial over time
Protocol: as §1, §2

[3] = Fabry disease patients vs healthy controls, during the trial period

CC(C)(NC(=O)O[C@@H]1CN2CCC1CC2)c1csc(-c2ccc(F)cc2)n1 [venglustat, (3S)-1-azabicyclo[2.2.2]octan-3-yl N-{2-[2-(4-fluorophenyl)-1,3-thiazol-4-yl]propan-2-yl}carbamate]
change of CD63 levels in CSF on treatment (CD63 [1]): consistently led to a decrease in CD63 levels
return of CD63 to control levels (CD63 [2]; [3]): do not return to control levels during the trial period
response of CD63 to treatment (CD63 [2]; Fabry disease patients, baseline to 156.4 weeks on treatment): decrease over a period of 30 months towards a healthy level; also recorded: show a response to treatment
time at which CD63 response to treatment is observed (CD63 [2]; Fabry disease patients, venglustat treatment): 12 weeks
first significant decrease in CD63 (estimated marginal mean, log 2) (CD63 [2]; Fabry disease patients, venglustat treatment, baseline to 156 weeks): ≤ 26 week
return of lyso-GL3 to control levels (lyso-GL3; [3]): do not return to control levels during the trial period
response of lyso-GL3 to treatment (lyso-GL3; Fabry disease patients, venglustat clinical trial over time): show a response to treatment
response of GL3 to treatment (GL3): show a response to treatment
